Experimental data from US20060160197A1 (priority 2004, published 2006).

What was measured:
Format in all cases: physicochemical
[1] = Example 17 back extraction with aqueous glycolic acid from loaded solvent (70% Alamine 336/10% MIBK/20% kerosene), 120° C.; details: 40 psig nitrogen
Description: (§1) A variety of analytical methods can be employed to analyze the reactants and products produced using the present methods include HPLC, GC, ion selective electrodes, MS, NMR, etc. HPLC was used to measure glycolic acid and various related products. Briefly, samples are diluted with water (as needed to be within HPLC detection range) and mixed 1:1 with 0.2 M n-propanol in water (HPLC internal standard). HPLC Analytical Method: (BioRad HPX 87H ion exclusion column (BioRad, Hercules, Calif.), 300 mm×7.8 mm; 0.01 N H2SO4 mobile phase; 1.0 mL/min flow at 50° C.; 10 μL injection volume; RI detector and UV 210 nm, 20 min analysis time). HPLC Equipment: (Waters 2695 ‘Alliance’ Separations Module, 2410 Refractive Index Detector, 2487 Dual λ Absorbance Detector and Empower Pro Software (Waters Corp, Milford, Mass.).
Following the procedures in Example 1, into a 1-L cylindrical glass vessel on an extraction mixer (mix by rotating back and forth vertically) was placed 100 mL of a mixed solvent containing 70% (volume/volume) Alamine® 336 (Cognis), 10% (volume/volume) methyl isobutyl ketone (MIBK) and 20% (volume/volume) kerosene. The pH of an aqueous solution of ammonium glycolate (10 wt % to 50 wt %) was adjusted to approximately pH 2 to 3 with concentrated sulfuric acid, then 100 mL of the resulting aqueous solution was added to the extraction mixer. […]

[2] = Example 12 reactive solvent extraction, 90% Alamine 336/10% toluene, 25° C.; details: pH 2 to 3
Description: as §1
Solvent Extraction Using Approximately 90% C8-C10 Trialkylamine in Combination with 10% Toluene at 25° C.
(§2) Into a 4-mL glass reactor equipped with magnetic stir bar was placed 1 mL of a mixed solvent containing 90% (volume/volume) Alamine® 336 (Cognis), 10% (volume/volume) toluene. The pH of an aqueous solution of ammonium glycolate (5 wt % to 40 wt %) was adjusted to pH 2 to 3 with concentrated sulfuric acid, then 1 mL of the resulting aqueous solution was added to the reactor. The resulting mixture was stirred for 30 minutes at 25° C.

[3] = Example 15 reactive solvent extraction, 90% Alamine 336/10% xylenes, 75° C.; details: pH 2 to 3
Description: as §1
Solvent Extraction Using Approximately 90% C8-C10 Trialkylamine in Combination with 10% Xylenes at 75° C.
as §2, with “xylenes (mixed xylene isomers).” for “toluene.”, “75°” for “25°”

[4] = Example 21 back extraction with aqueous glycolic acid from loaded solvent (70% trialkylamine/30% toluene), 120° C.; details: 70% C8-C10 trialkylamine/30% toluene, 40 psig nitrogen
Description: as §1
Back Extraction from a Loaded Solvent of Approximately 70% C8-C10 Trialkylamine in Combination with 30% Toluene
(§3) The vessel was then closed, and the headspace purged with nitrogen. The resulting mixture was stirred for 60 minutes at 120° C. under 40 psig (˜275.8 kPa) nitrogen. The stirring was stopped and the two phases allowed to separate at 120° C., then the organic phase was sampled under pressure through the top dip tube into a Hoke cylinder, and aqueous phases was sampled under pressure through the bottom dip tube into another Hoke cylinder.

[5] = Example 5 reactive solvent extraction, 90% Alamine 336/10% MIBK, 75° C.; details: pH 2 to 3
Description: as §1
Solvent Extraction Using Approximately 90% C8-C10 Trialkylamine in Combination with 10% Methyl Isobutyl Ketone at 75° C.
as §2, with “(Cognis) and” for “(Cognis),”, “methyl isobutyl ketone (MIBK).” for “toluene.”, “75°” for “25°”

[6] = Example 22 back extraction using water from loaded solvent (70% trialkylamine/30% toluene), 140° C.; details: back extraction into deionized water, 70% C8-C10 trialkylamine/30% toluene, 40 psig nitrogen
Description: as §1
Back Extraction Using Water from a Loaded Solvent of Approximately 70% C8-C10 Trialkylamine in Combination with 30% Toluene
as §3, with “Into a 85-mL pressure reaction glass tube (pressure reaction vessel, from Andrews Glass Co.) equipped with magnetic stir bar and double dip tubes was placed 10 mL deionized water and 10 mL of the loaded solvent (see Example 16). The vessel” for “The vessel”, “minutes at 140° C. under” for “minutes at 120° C. under”, “separate at 140° C., then” for “separate at 120° C., then”

[7] = initial 3.6 wt % glycolic acid in aqueous phase
[8] = initial 8.5 wt % glycolic acid in aqueous phase
[9] = initial 12.1 wt % glycolic acid in aqueous phase
[10] = initial 16.1 wt % glycolic acid in aqueous phase
[11] = initial 20.6 wt % glycolic acid in aqueous phase
[12] = initial 25.1 wt % glycolic acid in aqueous phase
[13] = initial 29.1 wt % glycolic acid in aqueous phase
[14] = initial 32.8 wt % glycolic acid in aqueous phase

Partition coefficient (wt % org./wt % aq.) ([1]; initial 20.0 wt % glycolic acid in aqueous phase, 16.0 wt % in loaded solvent): 0.59
Partition coefficient (wt % org./wt % aq.) ([1]; initial 40.0 wt % glycolic acid in aqueous phase, 17.5 wt % in loaded solvent): 0.51
Partition coefficient (wt % org./wt % aq.) [2, 7]: 1.22
Partition coefficient (wt % org./wt % aq.) [2, 8]: 1.41
Partition coefficient (wt % org./wt % aq.) [2, 9]: 1.46
Partition coefficient (wt % org./wt % aq.) [2, 10]: 1.23
Partition coefficient (wt % org./wt % aq.) [2, 11]: 1.20
Partition coefficient (wt % org./wt % aq.) [2, 12]: 1.26
Partition coefficient (wt % org./wt % aq.) [2, 13]: 1.00
Partition coefficient (wt % org./wt % aq.) [2, 14]: 0.86
Partition coefficient (wt % org./wt % aq.) [3, 7]: 0.55
Partition coefficient (wt % org./wt % aq.) [3, 8]: 0.55
Partition coefficient (wt % org./wt % aq.) [3, 9]: 0.66
Partition coefficient (wt % org./wt % aq.) [3, 10]: 0.64
Partition coefficient (wt % org./wt % aq.) [3, 11]: 0.65
Partition coefficient (wt % org./wt % aq.) [3, 12]: 0.73
Partition coefficient (wt % org./wt % aq.) [3, 13]: 0.75
Partition coefficient (wt % org./wt % aq.) [3, 14]: 0.72
Partition coefficient (wt % org./wt % aq.) ([4]; initial 20.0 wt % glycolic acid in aqueous phase, 14.2 wt % in loaded solvent): 0.54
Partition coefficient (wt % org./wt % aq.) ([4]; initial 40.0 wt % glycolic acid in aqueous phase, 15.7 wt % in loaded solvent): 0.54
Partition coefficient (wt % org./wt % aq.) [5, 7]: 0.75
Partition coefficient (wt % org./wt % aq.) [5, 8]: 0.70
Partition coefficient (wt % org./wt % aq.) [5, 9]: 0.76
Partition coefficient (wt % org./wt % aq.) [5, 10]: 0.73
Partition coefficient (wt % org./wt % aq.) [5, 11]: 0.79
Partition coefficient (wt % org./wt % aq.) [5, 12]: 0.87
Partition coefficient (wt % org./wt % aq.) [5, 13]: 0.84
Partition coefficient (wt % org./wt % aq.) [5, 14]: 0.86
Partition coefficient (wt % org./wt % aq.) ([6]; initial 3.7 wt % glycolic acid in loaded solvent): 0.26
Partition coefficient (wt % org./wt % aq.) ([6]; initial 10.7 wt % glycolic acid in loaded solvent): 0.30
Partition coefficient (wt % org./wt % aq.) ([6]; initial 14.2 wt % glycolic acid in loaded solvent): 0.38
Partition coefficient (wt % org./wt % aq.) ([6]; initial 15.7 wt % glycolic acid in loaded solvent): 0.28
Structure (SMILES): O=C(O)CO [glycolic acid]
